Laboratory results from patent US9527850B2, “Benzyl piperidine compounds as lysophosphatidic acid (LPA) receptor antagonist” (Merck Patent GmbH, priority 2011, dated 2016).

Each compound was assayed against T1, LPA2 receptor (LPA2R) (Homo sapiens, UniProt Q9HBW0) (assay: LPA2R-Calciumflux assay (intracellular calcium mobilisation, FLIPR)). Settings: U2OS cells recombinant expressing LPA2R; inhibition of LPA-induced Ca-flux; 10 concentrations 30 uM to 1 nM, 1% DMSO.
T1 construct: expressed in transfected cells; host or cells: U2OS
T1 sequence (Q9HBW0 whole entry): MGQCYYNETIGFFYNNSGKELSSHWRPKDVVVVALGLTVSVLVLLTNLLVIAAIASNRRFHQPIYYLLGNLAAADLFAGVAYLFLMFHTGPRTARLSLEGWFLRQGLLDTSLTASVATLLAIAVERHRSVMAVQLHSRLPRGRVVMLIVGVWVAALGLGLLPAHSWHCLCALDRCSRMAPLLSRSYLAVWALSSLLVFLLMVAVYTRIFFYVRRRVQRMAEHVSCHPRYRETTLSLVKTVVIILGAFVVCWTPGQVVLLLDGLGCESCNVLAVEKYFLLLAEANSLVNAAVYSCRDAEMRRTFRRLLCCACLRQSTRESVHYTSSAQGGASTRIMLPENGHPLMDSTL
Assay type: cell-based
In the case of `Fc1ccc(CN2CCCC[C@H]2c2cc3cc(F)ccc3[nH]2)cc1` [compound 137, 5-Fluoro-2-[(S)-1-(4-fluoro-benzyl)-piperidin-2-yl]-1H-indole], the IC50 is reported as 0.5 to 5 µM. In the case of `Cc1ccc(CN2CCCC[C@@H]2c2cc3cc(F)ccc3[nH]2)cc1C` [compound 138, 2-[(R)-1-(3,4-Dimethyl-benzyl)-piperidin-2-yl]-5-fluoro-1H-indole], the IC50 is reported as < 0.5 µM. `Cc1ccc(CN2CCCC[C@H]2c2cc3cc(F)ccc3[nH]2)cc1C` [compound 139, 2-[(S)-1-(3,4-Dimethyl-benzyl)-piperidin-2-yl]-5-fluoro-1H-indole] was tested, and the IC50 was 0.5 to 5 µM. For `Cc1ccc(CN2CCCC[C@@H]2c2nc3cc(Cl)cnc3[nH]2)cc1C` [compound 140, 6-Chloro-2-[(R)-1-(3,4-dimethyl-benzyl)-piperidin-2-yl]-3H-imidazo[4,5-b]pyridine], the IC50 was 0.5 to 5 µM. With `Cc1ccc(CN2CCCC[C@H]2c2nc3cc(Cl)cnc3[nH]2)cc1C` [compound 141, 6-Chloro-2-[(S)-1-(3,4-dimethyl-benzyl)-piperidin-2-yl]-3H-imidazo[4,5-b]pyridine] the IC50 was 0.5 to 5 µM. For `Cc1ccc(CN2CCCC[C@H]2c2nc3cc(F)ccc3[nH]2)cc1C` [compound 142, 2-[(S)-1-(3,4-Dimethyl-benzyl)-piperidin-2-yl]-5-fluoro-1H-benzo-imidazole], the IC50 was < 0.5 µM. In the case of `Cc1ccc(CN2CCCC[C@@H]2c2cc3ccccc3[nH]2)cc1` [compound 143, 2-[(R)-1-(4-Methyl-benzyl)-piperidin-2-yl)-1H-indole], the IC50 is reported as < 0.5 µM. In the case of `Fc1ccc(CN2CCCCC2c2cc3cccnc3[nH]2)cc1` (centres unmarked) [compound 144, 2-[1-(4-Fluoro-benzyl)-piperidin-2-yl]-1H-pyrrolo[2,3-b]pyridine], the IC50 is reported as 0.5 to 5 µM.
